Test results from US5639899A, “Prostaglandin E1 analogues” (Taisho Pharmaceutical Co., Ltd., priority 1991, dated 1997).

How the values were obtained:
[1] = test system: Guinea-pig Blood Platelet; test: Guinea-pig Blood Platelet Aggregation Inhibition Test (oral administration, aggregation measured in PRP); assay type: in vivo, guinea-pig (male Hartley strain); conditions: 50 μg/kg
Source text: The effects of the present invention are illustrated in more detail by the following experiments. Experiment 1 [Guinea-pig Blood Platelet Aggregation Inhibition Test]
194, page 927 (1962)]. […] [formula]
In the table are recited data of the compound obtained by converting the triple bond between the 13- and 14-positions of Compound 9 of Example 23 into a double bond as a comparative compound (limaprost) [Tsuboi et al, Arch. Intern. Pharmacodyn. Ther., vol. 247, page 89 (1980)].

[2] = Blood Pressure Lowering Test in Anesthetized Dogs; assay type: in vivo, dog (male mongrel); conditions: intravenous
Protocol: Male mongrel dogs, weighing 13 kg, were anesthetized by intravenous administration of 30 mg/kg of sodium pentobarbital. A cannula inserted into the left femoral […] was attached to a blood pressure transducer to measure blood pressure. A solution of the test drug in ethanol, if necessary, was diluted with ethanol. 10 μl of the solution was administered through the vein via a cannula inserted into the left anterior limb vein. The blood pressure lowering rate by the test drug was calculated by the following formula: [formula]

Rabbit Blood Platelet = Rabbit Blood Platelet Aggregation Inhibition Test; assay type: cell-based, rabbit (New Zealand white strain); conditions: Oryctolagus cuniculus, rabbit PRP, ADP 5 μM, 37° C., mean value
Protocol: Groups of four New Zealand white strain rabbits, each weighing 2.5 to 4.0 kg, were used for the test. […] The collected blood was Centrifuged at 1100 rpm for 15 minutes to give platelet rich plasma (PRP) as a supernatant. […] 194, page 927 (1962)]. That is, 1 μl of the test drug dissolved in ethanol at the desired concentration was added to 275 μl of PRP, and the mixture was stirred at 1000 rpm at 37° C.
The aggregation inhibition rate was calculated on the basis of the aggregation obtained by using ethanol in place of the test drug solution, and the aggregation inhibition activity was expressed as IC50 value which was determined from the dose response curve.
Results are shown in Table 2 wherein the compound number is as defined in the examples described hereinafter, and the IC50 value is expressed as the mean value.

IC50 (Rabbit Blood Platelet) [nM]	Compound	Aggregation Inhibition Rate, ADP Aggregation, 2 hours after administration ([1]; ADP 3 μM) [%]	Aggregation Inhibition Rate, Collagen Aggregation, 2 hours after administration ([1]; collagen 3 μg/ml) [%]	also measured
0.37	CCCC[C@@H](C)C[C@H](O)C#C[C@H]1[C@H](O)CC(=O)[C@@H]1CCCCC#CC(=O)O [Compound 16, (17R)-17,20-Dimethyl-2,2,3,3,13,14-hexadehydro-PGE1]			
3	CCCC[C@H](C)C[C@H](O)C#C[C@H]1[C@H](O)CC(=O)[C@@H]1CCCCC#CC(=O)OC [Compound 4, (71S)-17,20-Dimethyl-2,2,3,3,13,14-hexadehydro-PGE1 Methyl Ester]			
5.1	CCCC[C@H](C)C[C@H](O)C#C[C@H]1[C@H](O)CC(=O)[C@@H]1CCCCCC/C=C/C(=O)O [Compound 15, (2E,17S)-2a,2b-Dihomo-17,20-dimethyl-2,2a,13,14-tetradehydro-PGE1]			
0.74	CCCC[C@@H](C)C[C@H](O)C#C[C@H]1[C@H](O)CC(=O)[C@@H]1CCCCC#CC(=O)OC [Compound 8, (17R)-17,20-Dimethyl-2,2,3,3,13,14-hexadehydro-PGE1 Methyl Ester]			
6	COC(=O)/C=C/CCCC[C@H]1C(=O)C[C@@H](O)[C@@H]1C#C[C@@H](O)C1CCCCC1 [Compound 3, (2E)-16,17,18,19,20-Pentanor-15-cyclohexyl-2,3,13,14-tetradehydro-PGE1Methyl Ester]			blood pressure lowering rate ([2]; 0.03 μg/kg): 11.5%
1.1	CCC#CCC(C)[C@H](O)C#C[C@H]1[C@H](O)CC(=O)[C@@H]1CCCC/C=C/C(=O)O (stereo partly drawn) [Compound 10, (2E,16RS)-16,20-Dimethyl-2,3,13,14,18,18,19,19-octadehydro-PGE1]			
1.7	CCC#CCC(C)[C@H](O)C#C[C@H]1[C@H](O)CC(=O)[C@@H]1CCCC/C=C/C(=O)OC (stereo partly drawn) [Compound 2, (2E,16RS)-16,20-Dimethyl-2,3,13,14,18,18,19,19-octadehydro-PGE1 Methyl Ester]			
6.3	O=C(O)/C=C/CCCC[C@H]1C(=O)C[C@@H](O)[C@@H]1C#C[C@@H](O)C1CCCCC1 [Compound 11, (2E)-16,17,18,19,20-Pentanor-15-cyclohexyl-2,3,13,14-tetradehydro-PGE1]			
1.1	COC(=O)C#CCCCC[C@H]1C(=O)C[C@@H](O)[C@@H]1C#C[C@@H](O)CC(C)CCC=C(C)C (stereo partly drawn) [Compound 7, (17RS)-20-Nor-17-methyl-19-(2'-methylprop-1'-enyl)-2,2,3,3,13,14-hexadehydro-PGE1 Methyl Ester]			
5.1	CCCC[C@H](C)C[C@H](O)C#C[C@H]1[C@H](O)CC(=O)[C@@H]1CCCCC#CC(=O)O [Compound 12, (17S)-17,20-Dimethyl-2,2,3,3,13,14-hexadehydro-PGE1]			

Second part, the compound before the results:

Compound	IC50 (Rabbit Blood Platelet) [nM]	Aggregation Inhibition Rate, ADP Aggregation, 2 hours after administration ([1]; ADP 3 μM) [%]	Aggregation Inhibition Rate, Collagen Aggregation, 2 hours after administration ([1]; collagen 3 μg/ml) [%]	also measured
CCCC[C@H](C)C[C@H](O)C#C[C@H]1[C@H](O)CC(=O)[C@@H]1CCCC/C=C/C(=O)OC [Compound 1, (2E,17S)-17,20-Dimethyl-2,3,13,14-tetradehydro-PGE1 Methyl Ester]		9.8	25.7	blood pressure lowering rate ([2]; 0.03 μg/kg): 10.1%
CCCC[C@@H](C)C[C@H](O)C#C[C@H]1[C@H](O)CC(=O)[C@@H]1CCCC/C=C/C(=O)O [Compound 14, (2E,17R)-17,20-Dimethyl-2,3,13,14-tetradehydro-PGE1]	1.3	52.5	100.0	Aggregation Inhibition Rate, ADP Aggregation, 8 hours after administration ([1]; 8 hours after administration, ADP 3 μM): 31.8%; Aggregation Inhibition Rate, Collagen Aggregation, 8 hours after administration ([1]; 8 hours after administration, collagen 3 μg/ml): 61.0%
CCCCC[C@H](O)/C=C/[C@H]1[C@H](O)CC(=O)[C@@H]1CCCCCCC(=O)O [PGE1]	26			blood pressure lowering rate ([2]; 1 μg/kg): 13.9%; blood pressure lowering rate ([2]; 3 μg/kg): 23.7%
CCCC[C@H](C)C[C@H](O)/C=C/[C@H]1[C@H](O)CC(=O)[C@@H]1CCCC/C=C/C(=O)O [limaprost, reference compound]	6.3	3.4	16.2	blood pressure lowering rate ([2]; 0.5 μg/kg): 13.9%; blood pressure lowering rate ([2]; 1 μg/kg): 23.8%
CCCC[C@H](C)C[C@H](O)C#C[C@H]1[C@H](O)CC(=O)[C@@H]1CCCC/C=C/C(=O)O [Compound 9, (2E,17S)-17,20-Dimethyl-2,3,13,14-tetradehydro-PGE1]	2.6	26.4	28.4	blood pressure lowering rate ([2]; 0.03 μg/kg): 23.7%
CCCC[C@@H](C)C[C@H](O)C#C[C@H]1[C@H](O)CC(=O)[C@@H]1CCCC/C=C/C(=O)OC [Compound 5, (2E,17R)-17,20-Dimethyl-2,3,13,14-tetradehydro-PGE1 Methyl Ester]	1.4	25.9	1.6	
CCCCCC(C)C[C@H](O)C#C[C@H]1[C@H](O)CC(=O)[C@@H]1CCCC/C=C/C(=O)O (stereo partly drawn) [Compound 13, (2E,17RS)-17-Methyl-20-ethyl-2,3,13,14-tetradehydro-PGE1]	2.7			
CCCCOC(=O)C#CCCCC[C@H]1C(=O)C[C@@H](O)[C@@H]1C#C[C@@H](O)C[C@@H](C)CCCC [Compound 6, (17S)-17,20-Dimethyl-2,2,3,3,13,14-hexadehydro-PGE1 n-butyl Ester]		22.8	58.2	
